Test results reported in ChEMBL document CHEMBL5154929, “Optimization of the Natural Product Calothrixin A to Discover Novel Dual Topoisomerase I and II Inhibitors with Improved Anticancer Activity” (J Med Chem, 2022).

Assays:
A549 = assay: Cytotoxicity against human A549 cells expressing high level of topoisomerase I/II measured after 72 hrs by MTT assay; assay type: functional, cell-based; settings: A549, 72 h
HCT-116 = assay: Cytotoxicity against human HCT-116 cells expressing high level of topoisomerase I/II measured after 72 hrs by MTT assay; assay type: functional, cell-based; settings: HCT-116, 72 h
MDA-MB-231 = assay: Cytotoxicity against human MDA-MB-231 cells expressing high level of topoisomerase I/II measured after 72 hrs by MTT assay; assay type: functional, cell-based; settings: MDA-MB-231, 72 h
[1] = Cytotoxicity against human L02 cells measured after 72 hrs by MTT assay; assay type: toxicity, cell-based
A-375 = assay: Cytotoxicity against human A-375 cells expressing high level of topoisomerase I/II measured after 72 hrs by MTT assay; assay type: functional, cell-based; settings: A-375, 72 h
MCF7 = assay: Cytotoxicity against human MCF7 cells expressing high level of topoisomerase I/II measured after 72 hrs by MTT assay; assay type: functional, cell-based; settings: MCF7, 72 h
SH-SY5Y = assay: Cytotoxicity against human SH-SY5Y cells expressing low level of topoisomerase I/II measured after 72 hrs by MTT assay; assay type: functional, cell-based
[2] = Cytotoxicity against human HEK293T cells measured after 72 hrs by MTT assay; assay type: toxicity, cell-based, HEK-293T

Row | Structure (SMILES) | IC50 (A549) [nM] | IC50 (HCT-116) [nM] | IC50 (MDA-MB-231) [nM] | IC50 at 72 h [1] [nM] | IC50 (A-375) [nM] | IC50 (MCF7) [nM] | IC50 (SH-SY5Y) [nM] | IC50 at 72 h [2] [nM]
1 | O=C1c2c[n+]([O-])c3ccccc3c2C(=O)c2c1c1ccccc1n2CCN1CCCCC1 | 1080 | 780 | 1050 | 1050 | 180 | 620 | 1860 | –
2 | O=C1c2c[n+]([O-])c3ccccc3c2C(=O)c2c1c1ccccc1n2Cc1cn([C@@H]2O[C@H](CO)[C@@H](O)[C@H](O)[C@H]2O)nn1 | 560 | 130 | 650 | 420 | 230 | 590 | 880 | 940
3 | CC(=O)OC[C@H]1O[C@@H](n2cc(Cn3c4c(c5ccccc53)C(=O)c3c[n+]([O-])c5ccccc5c3C4=O)nn2)C[C@@H]1OC(C)=O | 1830 | 120 | 550 | 350 | 140 | 550 | > 500 | 2540
4 | CC1(C)OCC(Cn2cc(Cn3c4c(c5ccccc53)C(=O)c3c[n+]([O-])c5ccccc5c3C4=O)nn2)O1 (centres undefined) | 80 | 70 | 230 | 120 | 330 | 290 | 230 | 5510
5 | CC(=O)OC[C@H]1O[C@H](n2cc(Cn3c4c(c5ccccc53)C(=O)c3c[n+]([O-])c5ccccc5c3C4=O)nn2)[C@H](OC(C)=O)[C@@H]1OC(C)=O | 430 | 150 | 250 | 90 | 690 | 670 | 510 | 210
6 | O=C1c2c[n+]([O-])c3ccccc3c2C(=O)c2c1c1ccccc1n2Cc1cn([C@H]2O[C@H](CO)[C@@H](O)[C@H]2O)nn1 | 2680 | 710 | 1700 | 950 | 340 | 1490 | 1340 | 1370
7 | CN(C)CCn1c2c(c3ccccc31)C(=O)c1c[n+]([O-])c3ccccc3c1C2=O | 200 | 110 | 160 | 750 | 140 | 200 | 170 | –
8 | O=C1c2c[n+]([O-])c3ccccc3c2C(=O)c2c1c1ccccc1n2CCCCN1CCOCC1 | 90 | 90 | 240 | 510 | 170 | 130 | 170 | –
9 | CC1(C)OC[C@@H](Cn2cc(Cn3c4c(c5ccccc53)C(=O)c3c[n+]([O-])c5ccccc5c3C4=O)nn2)O1 | 4700 | 340 | > 1000 | 2900 | 450 | > 1000 | > 1000 | 6020
10 | CCCCN1CCN(CCCCn2c3c(c4ccccc42)C(=O)c2c[n+]([O-])c4ccccc4c2C3=O)CC1 | 550 | 1920 | 900 | 5690 | 2150 | 6900 | 6100 | –
11 | O=C1c2c[n+]([O-])c3ccccc3c2C(=O)c2c1c1ccccc1n2Cc1cn(C[C@@H](O)CO)nn1 | 390 | 190 | 670 | 490 | 140 | 600 | > 500 | 2030
12 | CC[C@@]1(O)C(=O)OCc2c1cc1n(c2=O)Cc2cc3ccccc3nc2-1 [CAMPTOTHECIN] | 370 | 600 | 490 | 140 | 660 | 350 | 610 | 690
13 | O=C1c2c[n+]([O-])c3ccccc3c2C(=O)c2c1c1ccccc1n2CCCCn1ccnc1 | 170 | 240 | 210 | 150 | 350 | 130 | 130 | 280
14 | O=C1c2c[n+]([O-])c3ccccc3c2C(=O)c2c1c1ccccc1n2CCCCN1CCCCC1 | 150 | 200 | 610 | 610 | 190 | 150 | 230 | –
15 | O=C1c2c[n+]([O-])c3ccccc3c2C(=O)c2c1c1ccccc1n2Cc1cn(C[C@H](O)CO)nn1 | 1030 | 400 | 1310 | 1130 | 350 | > 1000 | > 1000 | 8880
16 | O=C1c2c[n+]([O-])c3ccccc3c2C(=O)c2c1c1ccccc1n2Cc1cn(CC(O)CO)nn1 (centres undefined) | 880 | 250 | 1290 | 1070 | 440 | 1110 | > 1000 | 760

Row | Structure (SMILES) | IC50 (A549) [nM] | IC50 (HCT-116) [nM] | IC50 (MDA-MB-231) [nM] | IC50 at 72 h [1] [nM] | IC50 (A-375) [nM] | IC50 (MCF7) [nM] | IC50 (SH-SY5Y) [nM] | IC50 at 72 h [2] [nM]
17 | CN1CCN(CCCn2c3c(c4ccccc42)C(=O)c2c[n+]([O-])c4ccccc4c2C3=O)CC1 | 140 | 560 | 390 | 230 | 470 | 220 | 560 | 170
18 | O=C1c2c[n+]([O-])c3ccccc3c2C(=O)c2c1c1ccccc1n2CCCN1CCC(O)CC1 | 350 | 190 | 280 | 120 | 240 | 190 | 130 | 170
19 | O=C1c2c[n+]([O-])c3ccccc3c2C(=O)c2c1c1ccccc1n2CCCCCN1CCOCC1 | 130 | 300 | 330 | 330 | 230 | 260 | 300 | 150
20 | CC(=O)OC[C@H]1O[C@H](n2cc(Cn3c4c(c5ccccc53)C(=O)c3c[n+]([O-])c5ccccc5c3C4=O)nn2)C[C@@H]1OC(C)=O | 1140 | 380 | 1190 | 2780 | 550 | 1280 | > 1000 | 120
21 | CC1(C)O[C@@H](CO)[C@H](Cn2cc(Cn3c4c(c5ccccc53)C(=O)c3c[n+]([O-])c5ccccc5c3C4=O)nn2)O1 | 370 | 130 | 680 | 500 | 190 | 690 | > 1000 | 120
22 | CC(=O)OC[C@@H]1OC(C)(C)O[C@H]1Cn1cc(Cn2c3c(c4ccccc42)C(=O)c2c[n+]([O-])c4ccccc4c2C3=O)nn1 | > 1000 | 580 | > 1000 | 1060 | 430 | > 1000 | > 1000 | 10200
23 | CCCN1CCN(CCCCn2c3c(c4ccccc42)C(=O)c2c[n+]([O-])c4ccccc4c2C3=O)CC1 | 320 | 790 | 2980 | 6830 | 870 | 1280 | 3970 | –
24 | CN1CCN(CCCCCCn2c3c(c4ccccc42)C(=O)c2c[n+]([O-])c4ccccc4c2C3=O)CC1 | 330 | 2900 | 2400 | 3800 | 630 | 400 | 920 | 5800
25 | CC(=O)OC[C@H]1O[C@@H](n2cc(Cn3c4c(c5ccccc53)C(=O)c3c[n+]([O-])c5ccccc5c3C4=O)nn2)[C@H](OC(C)=O)[C@@H]1OC(C)=O | 1160 | 650 | 600 | 270 | 150 | 460 | 1900 | 900
26 | CC(=O)OC[C@H]1O[C@@H](n2cc(Cn3c4c(c5ccccc53)C(=O)c3c[n+]([O-])c5ccccc5c3C4=O)nn2)[C@H](OC(C)=O)[C@@H](OC(C)=O)[C@@H]1OC(C)=O | 290 | 760 | 400 | 270 | 560 | 330 | 640 | 2430
27 | CC1(C)OC[C@H](Cn2cc(Cn3c4c(c5ccccc53)C(=O)c3c[n+]([O-])c5ccccc5c3C4=O)nn2)O1 | 340 | 130 | 530 | 470 | 180 | 530 | 820 | 100
28 | CN(C)CCCCCn1c2c(c3ccccc31)C(=O)c1c[n+]([O-])c3ccccc3c1C2=O | 210 | 470 | 240 | 240 | 560 | 200 | 370 | 70
29 | O=C1c2c[n+]([O-])c3ccccc3c2C(=O)c2c1c1ccccc1n2CCN1CCOCC1 | 560 | 1280 | 2030 | 1730 | 820 | 1740 | 2020 | –
30 | O=C1c2c[n+]([O-])c3ccccc3c2C(=O)c2c1c1ccccc1n2CCN1CCCC1 | 410 | 270 | 630 | 930 | 430 | 320 | 520 | –
31 | O=C1c2c[n+]([O-])c3ccccc3c2C(=O)c2c1c1ccccc1n2CCCCN1CCN(CCO)CC1 | 200 | 330 | 740 | 880 | 470 | 380 | 450 | –
